Values of other authors in US11957648B2, “Method of initiating or escalating dofetilide dose and formulations therefor” (Academic Pharmaceuticals, Inc., priority 2018, dated 2024).

What was measured:
[1] = tested on: QTc interval; conditions: slope of plasma concentration vs QTc; Sedgwick et al; cited from earlier work
[2] = oral dosing; cited from earlier work

## CN(CCOc1ccc(NS(C)(=O)=O)cc1)CCc1ccc(NS(C)(=O)=O)cc1 [Dofetilide, β-((p-methanesulfonamidophenethyl)methylamino)methanesulfono-p-phenetidide]
[1]
  QTc change per dofetilide plasma concentration: 15 to 25 ms/ng/mL
[2]
  time to reach steady state concentration: at least 3 days
